The test system of series [1] is doxorubicin-resistant human breast carcinoma M-109 cell line. Put plainly: Cytotoxicity, methylene blue (MB) staining assay. The note with it: M-109 doxorubicin-resistant cells. The class given is cell-based. Here is the method: Cytotoxicity studies: The cytotoxicity of C6Cer-DXN-SSL against doxorubicin-resistant human breast carcinoma M-109 cell line was tested by the methylene blue (MB) staining assay [Gorodetsky, R. et al. Int. J. Cancer. 75:635-642 (1998)]. A known number of exponentially growing cells in 200 μL of medium were plated in 96-microwell, flat-bottomed plates. For each of the variants tested, 4 wells were used. Following 24 hr of incubation in culture, different concentrations of drugs or formulations were added to each well containing untreated cells.
Cells were exposed to drugs for 96 hr. […] The MB bound to the fixed cells was extracted by incubation at 37° C. with 200 μL of 0.1 N HCl for 1 h, and the net optical density of the dye in each well was determined by a plate spectrophotometer (Labsystems Multyskan Bichromatic, Finland) at 620 nm.
Statistical analysis: Median survival times and the statistical significance of differences in survival curves were calculated by means of the log-rank test using Prism Software (GraphPad, San Diego, Calif.). […] For assessment of synergy, the combination index (CI) was determined by median effect analysis [Chow T C, Talalay P. Quantitative analysis of dose-effect relationships: the combined effects of multiple drugs or enzyme inhibitors. […]

A further series deals with C-26 colon carcinomas. The experiment in a line: In vivo antitumor efficacy, mice inoculated i.p. with C-26 colon carcinoma. Further details: species or system BALB/c mice. Conditions: i.v. treatment, DXN 8 mg/kg.
The nature of series [2]: Doxorubicin pharmacokinetics and biodistribution in tumor-bearing mice. The class given is in vivo, BALB/c mice. Here is the method:
Pharmacokinetics and biodistribution studies in tumor-bearing mice: Eight to 10-week-old BALB/c female mice, obtained through the Animal Breeding House of the Hebrew University (Jerusalem, Israel), were housed at Hadassah Medical Center at a specific pathogen free (SPF) facility with food and water ad libitum. Each mouse was injected with one inoculum of tumor cells (1×10^6 murine C-26 cells) subcutaneously into the left flank. 7 days later SSL formulations containing both DXN (0.16 mg/mouse) and C6Cer, (0.25 mg/mouse), Doxil (0.16 mg/mouse) and free DXN (0.16 mg/mouse) were injected i.v. At 1, 4, 24 and 48 hr after injection, the animals were anesthetized with 4% chloral hydrate (Fluka, USA), bled by eye inoculation, and plasma was separated from blood cells by 5 min centrifugation at 5,000 rpm. Various organs (liver, heart, lungs, kidneys) and tumor were removed. Each time period in each treated group consisted of 3 mice. Samples were frozen at −80° C. until assayed. Thereafter, plasma samples were diluted in 90% isopropanol containing 10% 0.75N HCl in order to dissolve all liposome's lipids and release the DXN to the solution, and concentration of DXN was determined according to a standard calibration curve of DXN (excitation at 485±10 mu and emission at 590±10 nm) from fluorescence intensity using Synergy HT plate reader in its fluorescence mode (Bio-Tek, Vermont, USA).
Doxorubicin pharmacokinetics and biodistribution studies in tumor-bearing mice: BALB/c female mice were injected with one inoculum of tumor cells (1×10^6 C-26 cells) subcutaneously into the left flank. Seven days later, liposomal formulations containing both DXN and C6Cer [HSPC:^2kPEG-DSPE:Chol:C6Cer (76:7.5:5:11.5)-DXN]; Doxil or Free DXN were injected i.v., and bled by eye inoculation, plasma was isolated and 50 μl was taken from plasma for further analysis. DXN levels were determined after “extraction” of plasma with acidic isopropanol as described in Methods.

Structures are written as SMILES. pIC50: −log10 of the molar value. Counter-ions that a name gives are not always drawn. Like-named read-outs stand apart in the source and are kept apart here.

Procedure for C-26 colon carcinomas: In vivo evaluation of antitumor efficacy of Liposomal DXN: All the experimental procedures which make use of animals (mice) were done in accordance with the standards required by the Institutional Animal Care and Use Committee of the Hebrew University and Hadassah Medical Organization and approved by the Committee.
To test therapeutic efficacy, female BALB/c mice (in the weight range of 16-20 g) were injected i.p. with 1*10^6 C-26 colon carcinomas. The viability of these cells was >90% by trypan blue exclusion. Therapeutic efficacy of i.v. injected SSL (DXN-C6Cer-SSL) containing both DXN in intraliposome aqueous phase (DXN/PL ratio of 0.2) and 11.5 mole % of C6Cer in comparison to Doxil (alone) and free DXN was studied. In all 3 treatments DXN dose was 0.16 mg/mouse (8 mg/kg) and dose of C6Cer injected into mice treated with DXN-C6Cer-SSL was 0.25 mg.mouse (12.5 mg/kg). Intravenous treatment began at day 4 after tumor cell inoculation and was repeated three times at 5-days intervals. The median survival and percentage increase in life span of treated (T) over control (C) animals (Tx100/C)-100 were calculated.
Statistical analysis: Median survival times and the statistical significance of differences in survival curves were calculated by means of the log-rank test using Prism Software (GraphPad, San Diego, Calif.). Differences were considered significant at P<0.05.

Regarding `COc1cccc2c1C(=O)c1c(O)c3c(c(O)c1C2=O)C[C@@](O)(C(=O)CO)C[C@@H]3O[C@H]1C[C@H](N)[C@H](O)[C@H](C)O1` [free DXN, 8S,10S)-10-[(3-amino-2,3,6-trideoxy-a-L-lyxo-hexopyranosyl)oxy]-8-glycolyl-7,8,9,10-tetrahydro-6,8,11-trihydroxy-1-methoxy-5,12-naphthacenedione hydrochloride], the pIC50 in series [1] (M109, agent given alone, 96 hr exposure, read-out: IC50) is 5.66; in series [1] (M109, combined with liposomal C6Cer at its IC10, 96 hr, read-out: IC50 of DXN in the presence of IC10 concentration of liposomal C6Cer), 6.05. In the series with C-26 colon carcinomas (FIG. 3), the “survival 80 days after treatment initialization” value is 0%. The same compound displayed a median survival in the series with C-26 colon carcinomas (untreated 16 day) of 35 days. For the same compound, the “DXN remaining in plasma” value in series [2] (1 hr post-injection, i.v. 0.16 mg DXN/mouse, FIG. 4A) came out at 3%. Moreover, the “DXN level in heart tissue” value in series [2] (4 hr post-treatment, i.v., FIG. 4B) is given as 5.7%. Moreover, the “DXN level in tumor tissue” value in series [2] (24 hr post-injection (maximum), i.v., s.c. C-26 tumor, FIG. 4B) turned out to be 1%. Moreover, the “DXN remaining in circulation” value in series [2] (plasma, 48 hr post-injection, i.v. 0.16 mg DXN/mouse, FIG. 4A) is given as “below detection”.

Source of the values: patent US20080058274A1, “Combination Therapy” (priority 2004, published 2008).
